Measured values: PubChem BioAssay AID179 (DTP/NCI, 2004)
Active and inactive are the calls of the source.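 The calls were made as follows: active = compounds giving half or more protection of infected cells from virus-caused growth loss, again on retest; inactive = the rest.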 Where a SMILES comes first, the peptide text is derived from it.

Test system: CEM cells HIV-1 protection, formazan growth assay
Experiment: NCI AIDS Antiviral Assay
Settings: for IC50: measured here: growth of uninfected CEM cells
In short: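 Human CEM cells, uninfected and HIV-1-infected, exposed to five drug concentrations; growth measured by soluble formazan assay and scored as percent protection from infection, with protecting compounds retested.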

With `Cc1cc(NS(=O)(=O)c2ccc(Nc3c4ccccc4nc4c(C(=O)N5CCN(CCO)CC5)ccc(Cl)c34)cc2)no1` the EC50 was > 47.9 µM and the IC50 was > 47.9 µM.
For `Cc1cc(NS(=O)(=O)c2ccc(NC(=O)c3cccc4c(=O)c5ccccc5[nH]c34)cc2)no1`, the outcome was “inactive”.
In the case of `COc1cc2cccc(N=Cc3c(Br)ccc(OC)c3OC(C)C)c2cc1OC`, the EC50 is reported as > 3.16 µM and the IC50 is reported as > 3.16 µM.
`COc1cc(C2C3=C(CCCC3=O)N(c3ccc(C)cc3)C3=C2C(=O)CCC3)c([N+](=O)[O-])cc1OC` was tested, and the EC50 was > 200 µM and the IC50 was 145 µM.
`CCCCN1C(=O)C(NC(C)=O)C1COC(C)(C)C` (configuration not stated) was tested, and the EC50 was > 479 µM and the IC50 was > 479 µM.
With `Cc1c(Cc2ccccc2)n(C(C)OCCN(O)C(N)=O)c(=O)[nH]c1=O` (configuration not stated) the EC50 was > 200 µM and the IC50 was > 200 µM.
For `CCOC(=O)C1OC1C1CCCc2ccccc21` (configuration not stated), the EC50 was > 200 µM and the IC50 was > 100 µM.
With `CCCCN1C(=O)[C@@H]2[C@H](c3ccccc3O)C(c3ccccc3O)[C@@H]2C1=O` (some centres not stated) the EC50 was > 138 µM and the IC50 was 30.2 µM.
In the case of `Nc1nc(N)c(CCCc2ccccc2)c(N)n1`, the outcome is reported as “inactive”.
With `OC(CN(Cc1nc2ccccc2[nH]1)Cc1nc2ccccc2[nH]1)CN(Cc1nc2ccccc2[nH]1)Cc1nc2ccccc2[nH]1` the EC50 was > 200 µM and the IC50 was 2.51 µM.
For `N#C/C(=C/N1C(=O)/C(=C/c2ccc([N+](=O)[O-])cc2)SC1=S)c1nc2ccccc2s1`, the EC50 was > 200 µM and the IC50 was 15.5 µM.
With `O=C1CCC2(c3ccccc3)Nc3ncccc3N12` (configuration not stated) the EC50 was > 200 µM and the IC50 was > 200 µM.
In the case of `CCOC(=O)NC(Nc1ccc(Cl)cn1)(C(F)(F)F)C(F)(F)F`, the EC50 is reported as > 200 µM and the IC50 is reported as > 200 µM.
In the case of `CSc1nc(NC2OCC(O)C(O)C2O)cc(=O)[nH]1` (configuration not stated), the outcome is reported as “inactive”.
In the case of `CCOC(=O)c1c(-c2ccc(Cl)cc2)c(C#N)c(=S)n(C2OC(CO)C(O)C(O)C2O)c1-c1ccccc1` (configuration not stated), the EC50 is reported as > 200 µM and the IC50 is reported as 34.7 µM.
For `O=[As]1(c2ccccc2)c2ccccc2Oc2ccccc21`, the EC50 was > 288 µM and the IC50 was 141 µM.
For `O=C(N/C(=C\c1ccccc1[N+](=O)[O-])c1nc2ccccc2[nH]1)c1ccccc1`, the EC50 was > 49 µM and the IC50 was > 49 µM.
With `O=S1(=O)Cc2nc3ccccc3n2C1c1c(F)cccc1F` (configuration not stated) the EC50 was 29.5 µM and the IC50 was 75.9 µM.
With `O=C(N=C1N(c2ccccc2)C(=O)C(=O)N1c1ccccc1)c1ccccc1` the EC50 was > 200 µM and the IC50 was 5.62 µM.
`COC(=O)n1c(=O)nc2c3c(ncn21)Oc1c(c(-c2ccccc2)nn1-c1ccccc1)C3c1ccc(Cl)cc1` (configuration not stated) was tested, and the EC50 was > 100 µM and the IC50 was 2.34 µM.
In the case of `Nc1ccc(S(=O)(=O)Nc2cnc3ccccc3n2)cc1`, the EC50 is reported as > 316 µM and the IC50 is reported as > 316 µM.
With `C#CCN1C(=O)c2ccccc2S1(=O)=O.[C-]#[O+].[C-]#[O+].[C-]#[O+].[C-]#[O+].[C-]#[O+].[C-]#[O+].[Co].[Co]` the EC50 was > 200 µM and the IC50 was 7.08 µM.
For `O=C(c1c(F)c(F)c(F)c(F)c1F)n1c(=S)n(C(=O)c2c(F)c(F)c(F)c(F)c2F)c2ccccc21`, the EC50 was > 100 µM and the IC50 was 4.9 µM.
For `COc1ccccc1C1c2cc3c(cc2OC(N2CCOCC2)C1C)OCO3` (configuration not stated), the EC50 was > 200 µM and the IC50 was 15.8 µM.
`CCO/C=C(/C#N)C(=O)OC` was tested, and the outcome was “inactive”.
With `CC(=O)NC1C(CO)O[C@@H]2OC(C)(C)O[C@H]12` (some centres not stated) the EC50 was > 200 µM and the IC50 was > 200 µM.
For `CCN(CC)C(=O)Oc1c(Br)ccc2cc(C)cc(OC)c12`, the EC50 was > 200 µM and the IC50 was > 200 µM.
In the case of `COc1ccccc1N1C(=O)CSC1c1c[nH]c2ccccc12` (configuration not stated), the EC50 is reported as > 288 µM and the IC50 is reported as 186 µM.
In the case of `CCOC(=O)/C(C(=S)NCc1ccccc1)=C(/N)N1CCCC1`, the EC50 is reported as > 200 µM and the IC50 is reported as > 200 µM.
With `O=C(OCCN1CCNCC1)c1cc2ccccc2[nH]1` the EC50 was > 200 µM and the IC50 was 26.9 µM.
In the case of `Cc1ccc(S(=O)(=O)OC(C=O)C(O)C(O)COC(c2ccccc2)(c2ccccc2)c2ccccc2)cc1` (configuration not stated), the EC50 is reported as > 24.5 µM and the IC50 is reported as > 24.5 µM.
In the case of `CCOC1OC(COC(=O)C(C)(C)C)C(O)CC1n1cc(C)c(=O)[nH]c1=O` (configuration not stated), the EC50 is reported as > 200 µM and the IC50 is reported as > 200 µM.
With `O=C(O)[C@H](NS(=O)(=O)c1ccc2ccccc2c1)c1ccccc1` the outcome was “inactive”.
For `Cc1cc(C)nc(NS(=O)(=O)c2ccc(Nc3c4ccccc4nc4c(C(=O)Nc5ccc(S(=O)(=O)Nc6cc(C)on6)cc5)ccc(Cl)c34)cc2)n1`, the EC50 was > 46.8 µM and the IC50 was 41.7 µM.
In the case of `COCO[C@@H]1C(=O)N(c2ccccc2)[C@@H]1c1ccccc1`, the EC50 is reported as > 178 µM and the IC50 is reported as > 178 µM.
`N=C(N)C1CN(CCc2cnc[nH]2)C(=O)NC1=O` (configuration not stated) was tested, and the EC50 was > 200 µM and the IC50 was > 200 µM.
In the case of `CCCCN1CC(=O)N2CCCC(c3ccccc3)N2C(=O)C1` (configuration not stated), the EC50 is reported as > 794 µM and the IC50 is reported as 347 µM.
`N#C/C(=C\c1cccc(C#N)c1)c1ccccc1` was tested, and the EC50 was > 31.6 µM and the IC50 was > 31.6 µM.
`Oc1ccccc1-c1nc2sc(-c3ccccc3O)nc2s1` was tested, and the EC50 was > 200 µM and the IC50 was 132 µM.
With `CCOC(=O)/C(=C\c1cc(OC)ccc1OC)P(=O)(OCC)OCC` the EC50 was > 676 µM and the IC50 was 9.77 µM.
For `CNC(=S)c1nnsc1N`, the EC50 was > 200 µM and the IC50 was 0.302 µM.
For `CC(C)=CCN(N=O)c1ncnc2nc[nH]c12`, the EC50 was > 200 µM and the IC50 was > 200 µM.
In the case of `Cc1cc(NCCO)nc2c1ccc1ccccc12`, the EC50 is reported as > 141 µM and the IC50 is reported as 22.4 µM.
In the case of `CCc1cccc(C)c1NC(=O)CC1C(=O)Nc2ccccc2S1(=O)=O` (configuration not stated), the EC50 is reported as > 10 µM and the IC50 is reported as > 10 µM.
For `CCOC(=O)CC(=O)ON(C)C(=O)Cc1ccccc1`, the EC50 was > 251 µM and the IC50 was > 251 µM.
In the case of `O=C(OCc1ccccc1)N1C[C@@H](OCc2ccccc2)[C@@H](OCc2ccccc2)[C@H]1CO`, the EC50 is reported as > 200 µM and the IC50 is reported as 10.7 µM.
In the case of `CC1(C)OCC=CCO1`, the EC50 is reported as > 200 µM and the IC50 is reported as > 200 µM.
With `CN1C(=Nc2ccccc2)SC1=Nc1ccccc1` the outcome was “inactive”.
With `C=CCON(C(=O)OC(C)(C)C)C(C)(C)C` the EC50 was > 200 µM and the IC50 was > 200 µM.
With `O=C(Cc1ccccc1)N[C@@H]1COC(=O)[C@@H]2CCCN2C(=O)[C@@H]2CCCN2C1=O` (HELM PEPTIDE1{[O=C(Cc1ccccc1)[*:2]].[O=C([C@@H](CO[*:3])N[*:1])[*:2]].P.P}$PEPTIDE1,PEPTIDE1,2:R3-4:R2$$$V2.0) the EC50 was > 200 µM and the IC50 was > 200 µM.
`O=C(CNc1nncs1)NO` was tested, and the EC50 was > 1450 µM and the IC50 was 162 µM.
With `CCC[CH2][Ge]([CH2]CCC)([CH2]CCC)[O]C(=O)C(OC)c1ccccc1` (configuration not stated) the EC50 was > 151 µM and the IC50 was 7.41 µM.
In the case of `CC(=O)Nc1ccc(/C=N\N2C(=O)c3ccccc3C2=O)cc1`, the EC50 is reported as > 61.7 µM and the IC50 is reported as > 61.7 µM.
In the case of `Clc1ccc(CN2COc3c(ccc4ccccc34)C2)cc1`, the EC50 is reported as > 200 µM and the IC50 is reported as 70.8 µM.
For `O=[N+]([O-])C(=C(NCc1ccccc1)NCc1ccccc1)C(Cl)=C(Cl)Cl`, the EC50 was > 200 µM and the IC50 was 35.5 µM.
`CC(=O)NNc1nc(C)c(C(=O)NNC(=O)C(=O)Nc2nc3ccc([N+](=O)[O-])cc3s2)s1` was tested, and the EC50 was > 141 µM and the IC50 was 33.1 µM.
`c1ccc2c3ccn4ccc5c6ccccc6[nH]c5c4c-3nc2c1` was tested, and the EC50 was > 10 µM and the IC50 was 0.513 µM.
`O=C(/C=C/c1ccccc1)c1cccs1` was tested, and the EC50 was > 200 µM and the IC50 was 3.72 µM.
With `CN(C)c1ccc(/C(Br)=C2\OC(=O)c3ccccc32)cc1` the EC50 was > 200 µM and the IC50 was 112 µM.
In the case of `CSc1nc(C)cc(Nc2ccc(O)c(CN3CCOCC3)c2)n1`, the EC50 is reported as > 24 µM and the IC50 is reported as > 24 µM.
In the case of `CC(C)(CO)NC(=O)c1cccs1`, the EC50 is reported as > 200 µM and the IC50 is reported as > 200 µM.
In the case of `Nc1ccc(N=Nc2ccc(-c3ccc(N=Nc4c(S(=O)(=O)O)cc5cc(S(=O)(=O)O)c(N=Nc6ccccc6)c(O)c5c4N)cc3)cc2)c2ccc(S(=O)(=O)O)cc12`, the outcome is reported as “inactive”.
